From patent US20110129508A1 (priority 2008, published 2011)
Entries after “also recorded” stand apart in the source; their conditions may differ. Like-named read-outs stand apart in the source and are kept apart here.

Columns and labels:
[1] = tested on: rat model of diabetic neuropathic pain; design: species or system rats; conditions: in vivo
[2] = tested on: rat model of prostate bone cancer pain; experiment: animal or person; format: in vivo, Male Wistar rats; conditions: for ED50: Rattus norvegicus
[3] = tested on: streptozotocin-induced diabetic neuropathy model of neuropathic pain; conditions: rat, in vivo, ip, 2.5 mg/kg
[4] = rat, in vivo
[5] = male, Wistar (HsdBrlHan WIST), rat, in vivo, ip

| SMILES | reversal of hyperalgesia [1] [%] | ED50 ([2]; ip) [mg/kg] | ED50 ([2]; read-out: ED50 Mean) [mg/kg] | reversal in hyperalgesia [3] | mean rest times [4] [s] | antinociception ([2]; rat, in vivo, ip) | reversal of hyperalgesia ([2]; rat, in vivo, ip, 5 mg/kg) [%] | maximum non-sedating dose [5] [mg/kg] |
| --- | --- | --- | --- | --- | --- | --- | --- | --- |
| CCOC(=O)Nc1ccc(NCc2ccc(F)cc2)nc1N [flupirtine] | 8±8 | 3.32 | 3.32 | over 20% | 943.83 | – | – | – |
| CN1CC[C@]23c4c5ccc(O)c4O[C@H]2[C@@H](O)C=C[C@H]3[C@H]1C5 [morphine] | – | 0.735 | 0.735 | – | – | dose related antinociception; also recorded: dose related antinociceptive effects | 73 | 5 |
